Reference: paper PMC6349357, “Computational and experimental analysis of bioactive peptide linear motifs in the integrin adhesome” (PLoS ONE, 2019)

What was measured:
resting platelets = test: Platelet aggregation induced by peptide in resting washed platelets (activation); type: cell-based, human (healthy volunteers); conditions: for Activation: platelet aggregation in resting platelets after 6 minutes incubation with peptide, pal-peptides 20 μM, tat-peptides 50 μM, optical density, aggregometer, mean, n>=3; for Aggregation before TRAP activation, donor h: replicate donor h; for Aggregation before TRAP activation, donor i: replicate donor i; for Aggregation before TRAP activation, donor j: replicate donor j; for Activation, donor 20 08 13: replicate 20_08_13; for Activation, donor 22_08_13_DONOR1: replicate 22_08_13_DONOR1; for Activation, donor 22_08_13_DONOR2: replicate 22_08_13_DONOR2
Experimental: (§1) Blood was drawn from healthy volunteers into a syringe containing a final volume of 15% Acid Citrate Dextrose (ACD). The blood/ACD mixture was then aliquoted into 15 ml Cellstar tubes, at volumes of 5ml per tube, and centrifuged at 150 rcf for 10 minutes to obtain platelet rich plasma (PRP). PRP was then transferred to a 50ml tube using a pipette. The pH was then adjusted to 6.5. Prostaglandin (PGE1) was then added with a final concentration of 1μM. The PRP was then centrifuged at 750 rcf. After centrifugation the platelet poor plasma (PPP) was discarded and the pellet was resuspended in buffer A (6 mM dextrose, 130 mM NaCl, 9 mM NaHCO3, 10 mM sodium citrate, 10 mM Tris base, 3 mM KCl, 0.81 mM KH2PO4 and 0.9 mM MgCl26H2O, pH 7.4). A platelet concentration of 3x10^5/μl or 1x10^6/μl was obtained by dilution depending on the experiment in which they were used. Platelets were left to rest for 45 minutes and supplemented with 1.8mM calcium chloride prior to use.
(§2) A platelet concentration of 3x10^5 /μl was used when performing standard aggregations and a concentration of 1x10^6 /μl was used for sample preparation for western blot analysis. The extent of platelet aggregation was measured by quantifying the optical density of the samples using the Bio-Data PAP-8 aggregometer (platelet aggregation profiler, Horsham, PA, USA). A temperature of 37°C was maintained and samples were stirred using magnets spinning at 1100 rpm. 200 μl of washed platelets was added to each aggregation tube. Different volumes of buffer, peptide and TRAP were added to achieve the desired concentrations. Peptide/buffer was added to each well after two minutes. TRAP, with a final concentration depending on the experiment, was added 6 minutes later and data was collected for an additional 7 minutes.

TRAP-activated platelets = test: Inhibition of TRAP-induced platelet aggregation after pre-incubation with peptide; type: cell-based, human (healthy volunteers); conditions: for Aggregation after TRAP activation, donor h: replicate donor h; for Aggregation after TRAP activation, donor i: replicate donor i; for Aggregation after TRAP activation, donor j: replicate donor j; for Summary of effects of SDC4-derived palmitylated peptides and scrambled controls, 20μM: S2 Table B / S2 Fig, activation of resting platelets and inhibition of aggregation induced by 4 μM TRAP, in words; for Inhibition, donor 20_08_13: replicate 20_08_13
Experimental: as §1, §2

[1] = platelet aggregation induced by 4 μM TRAP in platelets pre-incubated with peptide (low value = inhibition), pal-peptides 20 μM, tat-peptides 50 μM, mean, n>=3
[2] = TRAP 4 μM, pal 20 μM, tat 50 μM
[3] = SDC4 peptides and controls, 20 μM, unit assumed
[4] = SDC4 peptides and controls, 20 μM
[5] = replicate 22_08_13_DONOR1, peptide 20 μM, TRAP 4 μM
[6] = replicate 22_08_13_DONOR2, peptide 20 μM, TRAP 4 μM

Substance	Activation (resting platelets; unit assumed)	Platelet aggregation remaining after TRAP (low = inhibition) (TRAP-activated platelets; [1])	Aggregation before TRAP activation, donor h (resting platelets; pal 20 μM, tat 50 μM)	Aggregation before TRAP activation, donor i (resting platelets; pal 20 μM, tat 50 μM)	Aggregation before TRAP activation, donor j (resting platelets; pal 20 μM, tat 50 μM)	Aggregation after TRAP activation, donor h (TRAP-activated platelets; [2])	Aggregation after TRAP activation, donor i (TRAP-activated platelets; [2])	Aggregation after TRAP activation, donor j (TRAP-activated platelets; [2])	Activation, donor 20 08 13 (resting platelets; [3])	Activation, donor 22_08_13_DONOR1 (resting platelets; [4])	Activation, donor 22_08_13_DONOR2 (resting platelets; [4])	Summary of effects of SDC4-derived palmitylated peptides and scrambled controls, 20μM (TRAP-activated platelets)	Inhibition, donor 20_08_13 (TRAP-activated platelets; peptide 20 μM, TRAP 4 μM)	Platelet aggregation remaining after TRAP (low = inhibition) (TRAP-activated platelets; [5])	Platelet aggregation remaining after TRAP (low = inhibition) (TRAP-activated platelets; [6])	further results
NSDTPPRPDRLPL-tat [PTPN12-tat, PTPN12 peptide with C-terminal tat]	3%	75	–	–	–	–	–	–	–	–	–	–	–	–	–	Aggregation before TRAP activation, donor a (resting platelets; replicate donor a, pal 20 μM, tat 50 μM): 3; Aggregation before TRAP activation, donor b (resting platelets; replicate donor b, pal 20 μM, tat 50 μM): 4; Aggregation before TRAP activation, donor c (resting platelets; replicate donor c, pal 20 μM, tat 50 μM): 4; Aggregation before TRAP activation, donor d (resting platelets; replicate donor d, pal 20 μM, tat 50 μM): 4; Aggregation before TRAP activation, donor e (resting platelets; replicate donor e, pal 20 μM, tat 50 μM): 3; Aggregation after TRAP activation, donor a (TRAP-activated platelets; replicate donor a, TRAP 4 μM, pal 20 μM, tat 50 μM): 73; Aggregation after TRAP activation, donor b (TRAP-activated platelets; replicate donor b, TRAP 4 μM, pal 20 μM, tat 50 μM): 76; Aggregation after TRAP activation, donor c (TRAP-activated platelets; replicate donor c, TRAP 4 μM, pal 20 μM, tat 50 μM): 76; Aggregation after TRAP activation, donor d (TRAP-activated platelets; replicate donor d, TRAP 4 μM, pal 20 μM, tat 50 μM): 75; Aggregation after TRAP activation, donor e (TRAP-activated platelets; replicate donor e, TRAP 4 μM, pal 20 μM, tat 50 μM): 78
tat-GRDKYKTLRQIRQGNTKQRIDEFESM [tat-MSN, tat peptide from MSN]	3%	73	3	3	4	76	68	75	–	–	–	–	–	–	–	–
IGLPKKKYK [pal-SDC4_middle Control 2, scrambled control of pal-SDC4_middle, reference compound]	–	–	–	–	–	–	–	–	12%	17	12	Inhibitor and mild activator	40	19	46	–
YKDSMERDKGK [pal-SDC4_JM Control 1, scrambled control of pal-SDC4_JM, reference compound]	–	–	–	–	–	–	–	–	70%	71	65	Activator	71	68	70	Effects on activation of aggregation at 1, 5 and 20 μM (resting platelets; S2 Fig A legend, three doses 1, 5, 20 μM): activatory effects; Activation, donor 14 06 13 (resting platelets; replicate 14_06_13, SDC4 peptides and controls, 20 μM, unit assumed): 69%; Activation, donor 18_06_13 (resting platelets; replicate 18_06_13, SDC4 peptides and controls, 20 μM, in % (unit assumed)): 68; Activation, donor 20_06_13 (resting platelets; replicate 20_06_13, SDC4 peptides and controls, 20 μM, in % (unit assumed)): 66; Inhibition, donor 14_06_13 (TRAP-activated platelets; replicate 14_06_13, peptide 20 μM, TRAP 4 μM): 76; Inhibition, donor 18_06_13 (TRAP-activated platelets; replicate 18_06_13, peptide 20 μM, TRAP 4 μM): 72; Inhibition, donor 20_06_13 (TRAP-activated platelets; replicate 20_06_13, peptide 20 μM, TRAP 4 μM): 71
tat-SVSETDDpYAEIIDE-(NH2) [tat-FAK_2, tat peptide from PTK2/FAK1, phosphorylated tyrosine]	3%	71	4	3	4	77	61	76	–	–	–	–	–	–	–	–
